Laboratory results from patent US20100256233A1, “SYSTEMS, METHODS AND COMPOSITIONS FOR REDUCTION OF INJURY FROM RADIATION EXPOSURE” (priority 2007, published 2010).

Tests used:
[1] = test system: acetylation of histone H3; assay: Western blot of acetylated histones in bone marrow after HDACi administration (HDACi activity); format: in vivo, mouse; settings: 10 h after first dose and 5 h after second dose, s.c., TSA 0.5 + 0.5 mg/kg, VPA 600 + 300 mg/kg
Procedure: […] or spleens were harvested at 10 h.
TSA is not selective and is expected to increase acetylation of histones non-specifically. FIG. 1 is a graph showing the acetylation of histone H3 relative to a beta-actin control in test samples. […] Bars indicate individual mice.

[2] = test system: BALB/c mice; assay: Lethality / survival after total-body irradiation (TBI); format: in vivo
Procedure: All studies were performed with prior approval and in accordance with institutional and national standards of animal care. The studies were approved by an Institutional Animal Care and Use Committee (“IACUC”) and were performed in an accredited AAALAC facility. Male BALB/c mice (Charles River Laboratories) 8 to 10 weeks old were allowed to acclimate for 1 week prior to the start of the study. Mice were maintained in environment-controlled (temperature and lighting) animal facilities, provided food and water ad libitum, and randomly assigned to experimental groups.
TBI was delivered using a 185 TBq (5000 Ci) ^137Cs source (Mark I, J. L. Shepherd and Associates, San Fernando, Calif.). Doses ranged from sublethal exposures of 5.5 Gy to lethal exposures of 6.5 Gy and a supralethal exposure of 7.0 Gy. The dose rate was approximately 1 Gy per minute.
Survival was measured in mice after TBI with and without HDACi. Groups of mice were exposed to 6.5 or 7.0 Gy alone or in combination with HDACi, as described above. Survival was defined as the time from irradiation to the time of euthanasia, which occurred when animals had lost 20% or more of their body weight.

In the case of `CC(/C=C/C(=O)NO)=C\[C@@H](C)C(=O)c1ccc(N(C)C)cc1` [TSA, trichostatin-A], the “increase in acetylated form of histone H3 relative to the beta-actin control” value [1] is reported as “three to four-fold increase”, the survival ([2]; 7 Gy TBI, TSA 0.5 mg/kg 24 h before TBI (FIG. 5)) is reported as “increased survival” and the “lethality (time for mice to lose 20% or more of their weight)” value ([2]; after TBI) is reported as “reduce lethality in a dose-dependent manner”.
